One assay has as its target Lck (Homo sapiens, UniProt P06239). Conditions: reported in [51]; cited from earlier work.
Assay [1] concerns IL-2 production in hPBL T-cells. The assay is described as follows: T-cell activation: TCR-induced IL-2 secretion (ELISA). It is filed as cell-based. Conditions: human T-cell cultures, anti-CD3/anti-CD28 stimulation, 20 hours, FIG. 7B; read-out: IC50 inhibition of IL-2 production. The procedure:
T-cell activation. Whole blood was obtained from normal donors and human peripheral blood lymphocytes (hPBL) were isolated by ficol-hypaque density centrifugation. T-cells were then purified from the hPBL by negative selection using an R&D column following the manufacturers directions (R&D Systems, Minneapolis, Minn.). A 96-well flat-bottomed plate was coated with 10 μg/ml of goat anti-mouse (GAM)-IgG1 (Caltag, Burlingame, Calif.) in PBS overnight at 4C. The GAM-coated plate was flicked out and anti-CD3 mAb (UCHT-1, Coulter/Immunotech, Miami, Fla.) is added at 0.2 μg/ml in AIMV medium (Gibco, Grand Island, N.Y.) for 3 hr. at 37C. Purified T-cells were pre-incubated at 1×10^5/well in AIM V with or without compound for 30 minutes then transferred to the anti-CD3 capture plate. Finally, anti-CD28 (Pharmingen, San Diego, Calif.) in AIMV (150 ng/ml final) was added to each well. Cells were incubated for 20 hours at 37C in 5% CO2 then supernatants were tested by ELISA for cytokine levels (Endogen, Woburn, Mass.).
In general terms: An ELISA detects its analyte on a solid surface through an enzyme-linked reagent.

In another assay the target is T1, ZAP-70 (Homo sapiens, UniProt P43403).
T1 sequence (P43403 1-619): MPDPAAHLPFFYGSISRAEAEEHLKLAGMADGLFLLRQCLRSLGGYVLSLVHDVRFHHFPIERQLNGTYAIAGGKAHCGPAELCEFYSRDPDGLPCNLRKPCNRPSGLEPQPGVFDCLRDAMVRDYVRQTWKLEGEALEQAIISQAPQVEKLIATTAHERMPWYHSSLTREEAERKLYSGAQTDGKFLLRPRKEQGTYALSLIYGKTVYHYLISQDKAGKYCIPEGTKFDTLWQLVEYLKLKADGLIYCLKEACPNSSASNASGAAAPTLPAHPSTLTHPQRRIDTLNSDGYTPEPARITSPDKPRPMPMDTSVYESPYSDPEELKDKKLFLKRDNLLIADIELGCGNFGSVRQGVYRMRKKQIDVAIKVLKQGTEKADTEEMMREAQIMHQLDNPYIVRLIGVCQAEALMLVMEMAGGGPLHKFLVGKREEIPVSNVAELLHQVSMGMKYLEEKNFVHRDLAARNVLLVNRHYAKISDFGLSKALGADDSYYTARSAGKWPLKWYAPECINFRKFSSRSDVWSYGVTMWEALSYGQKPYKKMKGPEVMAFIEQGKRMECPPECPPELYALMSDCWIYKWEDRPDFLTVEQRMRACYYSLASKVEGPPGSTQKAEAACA
The settings on record: reported in [51]; cited from earlier work.

Assay [2] has as its system TCR ζ-chain (p23) and 70 kD protein phosphorylation in Jurkat cells. It is filed as cell-based. The settings on record: TCR-induced phosphotyrosine, western blot, FIG. 7C. The procedure: Phosphotyrosine western blotting. […] Cells were then transferred to 37° C. water bath for 1 minute. Stimulation was stopped by the addition of 5 volumes of cold PBS containing 200 μM sodium orthovanadate. Cells were spun down and lysed in 150 mM Tris/10 mM HEPES buffer, pH 7.3, containing 1% Triton X-100 and Complete protease inhibitor cocktail (Boehringer Mannheim, Germany) for 30 minutes on ice. […] Blots were probed with anti-phosphotyrosine (4G10, Upstate Biotechnology, Inc., Saranac Lake, N.Y.) and developed using ECL-plus following the manufacturers directions (Amersham, Arlington Heights, Ill.).

Results on 3 compounds are retold here after patent publication US20040204863A1, “Crystal of a kinase-ligand complex and methods of use” (priority 1999, published 2004).

One may read the pIC50 as the negative decadic logarithm of the IC50, by convention in mol/L.

Molecules are shown by their SMILES. pIC50: −log10 of the molar value.

Chain of Lck (P06239 whole entry, species assumed): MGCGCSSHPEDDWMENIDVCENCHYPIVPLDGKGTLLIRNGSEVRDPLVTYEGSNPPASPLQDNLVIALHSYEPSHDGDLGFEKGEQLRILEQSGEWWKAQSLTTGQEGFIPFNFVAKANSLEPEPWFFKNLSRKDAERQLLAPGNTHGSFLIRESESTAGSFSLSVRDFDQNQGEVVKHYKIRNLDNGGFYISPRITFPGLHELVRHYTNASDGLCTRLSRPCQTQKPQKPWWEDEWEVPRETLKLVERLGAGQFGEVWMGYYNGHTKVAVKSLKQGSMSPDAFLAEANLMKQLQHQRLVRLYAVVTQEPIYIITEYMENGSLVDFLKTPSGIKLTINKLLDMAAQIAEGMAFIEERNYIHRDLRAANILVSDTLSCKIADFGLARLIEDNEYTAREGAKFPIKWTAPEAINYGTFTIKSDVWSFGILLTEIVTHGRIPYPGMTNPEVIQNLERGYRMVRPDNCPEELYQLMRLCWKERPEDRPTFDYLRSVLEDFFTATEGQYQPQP

On to `Cc1ccc(-c2nn(C(C)(C)C)c3ncnc(N)c23)cc1` [PP1], for which the “inhibitory activity against Lck compared with PP2” value on Lck is “approximately the same inhibitory activity against Lck”.

Regarding `CC(C)(C)n1nc(-c2ccc(Cl)cc2)c2c(N)ncnc21` [PP2], the pIC50 is 6.22 in assay [1] and ≤ 4.00 at ZAP-70. Further, in assay [2], the “inhibition of Lck-dependent phosphorylation of the TCR ζ-chain (p23)” value is reported as “dose-dependent inhibition”. In assay [2], the “inhibition of phosphorylation of a 70 kD protein (likely ZAP-70)” value is listed as “inhibited the phosphorylation of a 70 kD protein”.

With `CN[C@@H]1C[C@H]2O[C@@](C)([C@@H]1OC)n1c3ccccc3c3c4c(c5c6ccccc6n2c5c31)C(=O)NC4` [staurosporine], in assay [1], the pIC50 is 7.22.
